Values of other authors as cited in patent publication US20250009664A1, “DOSAGE FORM FOR INTRA-[…] INJECTION […] USE IN THE TREATMENT OF CRYSTAL-AND NON-CRYSTAL […] IN[…]” (priority 2021, published 2025).

Settings: literature

Structure (SMILES): COc1cc2c(c(OC)c1OC)-c1ccc(OC)c(=O)cc1[C@@H](NC(C)=O)CC2 [colchicine, N-[(7S)-1,2,3,10-tetramethoxy-9-oxo-6,7-dihydro-5H-benzo[a]heptalen-7-yl]acetamide]
- lethal dose: 0.8 mg/kg
- toxicity limit: 0.1 mg/kg
